Active and inactive are the calls of the source. The rule behind the calls is not given here.
Tested on: Helicoverpa zea
Test: Antifeedant activity against Helicoverpa zea (corn earworm) at 250 mg/ml at 28 degC day/24 degC night measured after 6 days
Type: functional, organism-based

SMILES | Activity
Oc1ccc(C(O)c2ccc(O)cc2)cc1 | inactive
O=C(O)c1ccc(O)cc1 | inactive
